According to article PMC10954696, “Development of a novel AAK1 inhibitor via Kinobeads-based screening” (Scientific Reports, 2024):
Entries after “also recorded” stand apart in the source; their conditions may differ.

Assays:
[1] = target: T1, His-tagged AAK1 catalytic domain (25–396) (Homo sapiens, UniProt Q2M2I8); assay: AAK1 activity assay: phosphorylation of GST-AP2µ2 (145–162) by His-AAK1 25–396 with [γ-32P]ATP; format: biochemical; conditions: for IC50: His-AAK1 25–396, GST-AP2µ2 (145–162), 100 µM [γ-32P]ATP, 30 °C, 20 min, read-out: IC50 against AAK1 activity
T1 construct: Purified His-AAK1 25–396 (200 ng); His10 (N); made in house; host or cells: COS-7 cells
Protocol: AAK1 phosphorylates AP2µ2 at Thr156; therefore, we set up an AAK1 activity assay using GST-fused AP2µ2 fragment (residues 145–162) as a substrate and anti-phospho-Thr156 antibody for detection of the substrate phosphorylation by AAK1.
(§1) Purified His-AAK1 25–396 (200 ng), His-GAK 2–370 (33 ng), His-BIKE 2–396 (87 ng), and His-STK16 2–306 (95 ng) were incubated with 10 µg GST-AP2µ2 (145–162)-His6 in a solution (20 µL) containing 50 mM HEPES pH7.5, 10 mM Mg(CH3COO)2, 1 mM DTT, and 0.1 mM [γ-^32P]ATP or ATP at 30 °C for the indicated time periods (His-GAK 2–370, 10 min; His-BIKE 2–396, 90 min; His-STK16 2–306, 20 min) in the presence or absence of various concentrations of inhibitors (5% DMSO). Then, 15 µL of the sample was spotted onto Whatman P81 paper and washed using 95% EtOH, followed by scintillation counting of the paper to measure the phosphate incorporation into GST-AP2µ2 (145–162)-His6. For immunoblot detection, reactions were terminated by the addition of an equal volume of 2 × SDS-PAGE buffer at various time points, followed by immunoblot analyses using an anti-phospho-AP2µ2 (AP2M1) at Thr156 antibody.

His-tagged AAK1 = target: T2, His-tagged AAK1 (Homo sapiens, UniProt Q2M2I8); assay: Pull-down of His-tagged AAK1 from COS-7 cell extracts with TIM-063–immobilized sepharose (TIM-127-sepharose); format: binding; conditions: COS-7 extracts, elution with 100 µM TIM-063
T2 construct: expressed in transfected cells; host or cells: COS-7 cells
Protocol: COS-7 cells transfected with expression plasmids for His-tagged AAK1 were lysed with buffer A containing protease inhibitors as described above, and then cell lysates (200 µL) were incubated with either TIM-127-coupled sepharose or control sepharose (10 µL) for 30 min. After washing the resin thrice with buffer A (500 µL), samples were eluted from the sepharose resin by incubation with 20 µL of 100 µM TIM-063 in buffer A as previously described, followed by immunoblot analysis.

CaMKKα/1 [2] = target: T3, CaMKKα/1 (Rattus norvegicus, UniProt P97756); parameters: method as in PMID 32298102; conditions: cited from earlier work
T3 construct: His6; made in house; host or cells: COS-7 cells

CaMKKβ/2 [3] = target: T4, CaMKKβ/2 (Rattus norvegicus, UniProt O88831); parameters: method as in PMID 32298102; conditions: cited from earlier work
T4 construct: His6; made in house; host or cells: COS-7 cells

CaMKKα/1 [4] = target: T3, CaMKKα/1; assay: CaMKK activity assay: phosphorylation of GST-CaMKIα 1–293KE; format: biochemical; conditions: up to 2.6 µM, immunoblot anti-phospho-CaMKIα (pThr177), 30 °C, 10 min, Fig. 4c
Protocol: (§2) Purified His-CaMKKα/1 or His-CaMKKβ/2 (40 ng) was incubated with 10 µg GST-CaMKIα 1–293KE in a solution (20 µL) containing 50 mM HEPES pH7.5, 10 mM Mg (CH3COO)2, 1 mM DTT, 2 mM CaCl2, 6 µM CaM, and 0.1 mM [γ-^32P]ATP at 30 °C for a reaction time of 20 min in the presence or absence of compounds. Then, 15 µL of the sample was spotted onto Whatman P81 paper, followed by scintillation counting of the paper as described above to measure the phosphate incorporation into GST-CaMKIα 1–293KE. Reactions were terminated by the addition of an equal volume of 2 × SDS-PAGE for the immunoblot assay at 30 °C for 10 min using 2.5 ng of CaMKKs in the solution described above containing 0.1 mM ATP, followed by immunoblot analyses using anti-phospho-CaMKIα at the Thr177 antibody.

CaMKKβ/2 [5] = target: T4, CaMKKβ/2; assay: as above; format: biochemical; conditions: up to 2.6 µM, immunoblot anti-phospho-CaMKIα (pThr177), 30 °C, 10 min, Fig. 4c
Protocol: as §2

His-BIKE 2–396 = target: T5, His-BIKE 2–396 (Mus musculus, UniProt Q91Z96); assay: NAKs activity assay: phosphorylation of GST-AP2µ2 (145–162); format: biochemical; conditions: His-BIKE 2–396, 0.1 mM ATP, 30 °C, 90 min, duplicate experiments; read-out: IC50 against BIKE activity
T5 construct: His-BIKE 2–396 (87 ng); His6 (N); made in house; host or cells: COS-7 cells
Protocol: as §1
(§3) Supplemental Information S3
(§4) Effect of TIM-98a on NAKs’ activities. Purified His-GAK 2–370 (33 ng, closed triangles), His-BIKE 2–396 (87 ng, closed circles), and His-STK16 2–306 (95 ng, open circles) were incubated with 10 µg GST-AP2µ2 (145–162)-His6 in a solution (20 µL) containing 50 mM HEPES pH7.5, 10 mM Mg(CH3COO)2, 1 mM DTT, and 0.1 mM ATP at 30°C for the indicated time periods (His-GAK 2–370, 10 min; His-Bike 2–396, 90 min; His-STK16 2–306, 20 min) in the presence or absence (-) of various concentrations of TIM-098a. […] NAK’s activities are quantitated by densitometric scanning of the immunoreactive bands and expressed as a percentage of the average value in the absence of the compound (-). Results represent duplicate experiments. Molecular mass markers (kDa) are indicated in the left lanes of immunoblot panels.
(§5) (1 picture or pasted object on this page, not shown here)

His-GAK 2–370 = target: T6, His-GAK 2–370 (Mus musculus, UniProt Q99KY4); assay: as above; format: biochemical; conditions: His-GAK 2–370, 0.1 mM ATP, 30 °C, 10 min, duplicate experiments; read-out: IC50 against GAK activity
T6 construct: His-GAK 2–370 (33 ng); His6 (N); made in house; host or cells: COS-7 cells
T6 sequence (Q99KY4 2-370): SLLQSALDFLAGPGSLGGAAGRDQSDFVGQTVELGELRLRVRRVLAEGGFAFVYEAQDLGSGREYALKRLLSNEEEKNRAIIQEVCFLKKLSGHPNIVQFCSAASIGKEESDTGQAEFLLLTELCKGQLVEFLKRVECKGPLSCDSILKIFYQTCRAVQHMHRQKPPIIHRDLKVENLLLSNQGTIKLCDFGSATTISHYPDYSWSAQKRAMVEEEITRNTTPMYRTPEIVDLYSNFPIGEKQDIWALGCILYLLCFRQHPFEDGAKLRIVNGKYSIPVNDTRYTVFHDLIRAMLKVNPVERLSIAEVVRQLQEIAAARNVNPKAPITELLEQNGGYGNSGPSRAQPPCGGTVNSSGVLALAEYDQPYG
Protocol: as §1, §3, §4, §5

His-STK16 2–306 = target: T7, His-STK16 2–306 (Mus musculus, UniProt O88697); assay: as above; format: biochemical; conditions: His-STK16 2–306, 0.1 mM ATP, 30 °C, 20 min, duplicate experiments; read-out: IC50 against STK16 activity
T7 construct: His-STK16 2–306 (95 ng); His6 (N); made in house; host or cells: COS-7 cells
Protocol: as §1, §3, §4, §5

[6] = target: T8, AAK1 catalytic domain (25–396) in transfected COS-7 cells (Homo sapiens, UniProt Q2M2I8); assay: AAK1 activity in transfected COS-7 cells (pThr156 of GST-AP2µ2 145–162, immunoblot); format: cell-based; conditions: COS-7 cells expressing AAK1 25–396 and GST-AP2µ2 (145–162), 6 h treatment
T8 construct: transfected with 0.2 µg of pME-His-AAK1 25–396; expressed in transfected cells; host or cells: COS-7 cells
Protocol: To examine the effect of TIM-098a on AAK1 activity in cells, we set up an AAK1 activity assay in the cells as follows. Transfection of expression plasmids for the catalytic domain of AAK1(25–396) together with its artificial substrate (GST-AP2µ2 145–162) into COS-7 cells was followed by detection of phosphorylation of Thr156 via immunoblot analyses with anti-phospho-Thr156 antibody after 6 h-treatment with or without TIM-098a (Fig. 5). […] When we treated AAK1/GST-AP2µ2 (145–162) expressing COS-7 cells with various concentrations of TIM-098a, AAK1-catalyzed Thr156 phosphorylation of GST-AP2µ2 (145–162) was suppressed by TIM-098a treatment in a concentration-dependent manner (Fig. 5b), indicating the cell-membrane permeability and inhibitory effect of the inhibitor on AAK1 activity in the cells.
COS-7 cells and HeLa cells were obtained from American Type Culture Collection. COS-7 cells were cultured in 6-well plates or 10 cm dishes in Dulbecco’s modified Eagle’s medium supplemented with 10% fetal bovine serum at 37 °C in 5% CO2. COS-7 cells in 6-well plates were transfected with 0.2 µg of pME-His-AAK1 25–396 and 1.8 µg of pME-GST-AP2µ2 (145–162) expression plasmids using polyethylenimine “MAX” (Polysciences, Inc. Warrington, PA), according to the manufacturer’s protocol. […]

[7] = test system: HeLa cells overexpressing His-tagged AAK1 (1–863); assay: Early endosome formation (EEA1-positive vesicles), immunofluorescence microscopy; format: cell-based, human; conditions: 10 µM, 6 h, AAK1-transfected HeLa cells
Protocol: (§6) HeLa cells were cultured in 6-well plates containing Dulbecco’s modified Eagle’s medium supplemented with 10% fetal bovine serum at 37 °C in 5% CO2. The cells were transfected with 2 µg of an AAK1-expression plasmid (pME-His-AAK1 1–863) using polyethylenimine “MAX” according to the manufacturer’s protocol. After 42 h of culture, the cells were cultured with or without 10 µM TIM-098a for 6 h. HeLa cells grown on coverslips were fixed with 3.7% paraformaldehyde in PBS for 15 min and permeabilized with 0.1% Triton X-100 in PBS for 5 min at room temperature. Next, the cells were blocked with 4% bovine serum albumin (BSA) in PBS for 15 min and incubated with primary antibodies diluted in 4% BSA in PBS for 15 min. The cells were washed three times with PBS and incubated for 15 min with the appropriate secondary antibodies conjugated to Alexa fluorophores. After washing, the coverslips were mounted on microscope slides and viewed under an FV1000 confocal microscope (Olympus, Tokyo, Japan). Quantification of EEA1-positive vesicles was performed using ImageJ software. EEA1 fluorescence signals with areas greater than 430 nm^2 were counted as EEA1-positive vesicles using the particle analyzer function in ImageJ. To account for clustered EEA1 signals, the watershed segmentation method was applied in ImageJ before using the particle analyzer.

HeLa cells = assay: as above; format: cell-based, human; conditions: 10 µM, 6 h, untransfected HeLa cells
Protocol: as §6

T1 sequence (Q2M2I8 25-396): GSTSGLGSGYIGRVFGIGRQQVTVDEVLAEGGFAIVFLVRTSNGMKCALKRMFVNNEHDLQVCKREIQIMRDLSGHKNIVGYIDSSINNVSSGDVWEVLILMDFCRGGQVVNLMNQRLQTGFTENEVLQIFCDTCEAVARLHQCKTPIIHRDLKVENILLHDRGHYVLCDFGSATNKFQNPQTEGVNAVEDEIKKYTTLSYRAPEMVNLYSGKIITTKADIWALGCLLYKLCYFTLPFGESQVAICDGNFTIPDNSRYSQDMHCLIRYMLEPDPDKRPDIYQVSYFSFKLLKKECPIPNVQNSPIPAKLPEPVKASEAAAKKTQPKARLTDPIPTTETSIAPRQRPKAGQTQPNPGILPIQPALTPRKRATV
T8 sequence (Q2M2I8 25-396): as above
T7 sequence (O88697 2-305 limits assumed): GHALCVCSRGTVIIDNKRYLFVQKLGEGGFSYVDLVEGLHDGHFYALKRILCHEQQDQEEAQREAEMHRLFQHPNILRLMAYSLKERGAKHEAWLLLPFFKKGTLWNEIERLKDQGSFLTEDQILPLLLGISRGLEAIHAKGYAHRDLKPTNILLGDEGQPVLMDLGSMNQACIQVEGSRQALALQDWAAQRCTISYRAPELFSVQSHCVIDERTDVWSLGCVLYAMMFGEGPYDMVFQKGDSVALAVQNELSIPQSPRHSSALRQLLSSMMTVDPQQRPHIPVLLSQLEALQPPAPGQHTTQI
T5 sequence (Q91Z96 2-396): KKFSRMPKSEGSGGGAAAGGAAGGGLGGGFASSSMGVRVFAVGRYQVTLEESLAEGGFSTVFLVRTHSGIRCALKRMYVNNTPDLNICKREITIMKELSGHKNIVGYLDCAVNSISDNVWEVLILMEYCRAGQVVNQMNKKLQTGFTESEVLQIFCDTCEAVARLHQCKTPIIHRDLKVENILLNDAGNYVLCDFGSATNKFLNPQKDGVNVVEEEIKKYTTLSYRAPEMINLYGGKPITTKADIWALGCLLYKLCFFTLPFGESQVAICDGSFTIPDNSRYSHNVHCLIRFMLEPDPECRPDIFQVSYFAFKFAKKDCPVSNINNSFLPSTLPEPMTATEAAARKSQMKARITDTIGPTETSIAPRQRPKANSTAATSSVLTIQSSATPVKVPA

SMILES	inhibition at 2.6 µM ([1]; 2.6 µM compound) [%]	inhibition at 26 µM ([1]; 26 µM compound) [%]	IC50 [1] [nM]	inhibitory effect on AAK1 relative to that on CaMKK ([1]; lower on AAK1 than on CaMKK)	interaction with AAK1 catalytic domain (His-AAK 25–396) (His-tagged AAK1)	interaction with His-tagged AAK1 full length (1–863) (His-tagged AAK1)	IC50 (CaMKKα/1 [2]) [nM]	IC50 (CaMKKβ/2 [3]) [nM]	AAK1 inhibitory potency relative to TIM-063 ([1]; higher potency than TIM-063)	selectivity for AAK1: higher inhibitory potency than for other NAKs ([1]; versus GAK, BIKE, STK16)	effect on CaMKKα/1 activity (CaMKKα/1 [4])	effect on CaMKKβ/2 activity (CaMKKβ/2 [5])	IC50 (His-BIKE 2–396) [nM]	IC50 (His-GAK 2–370) [nM]	IC50 (His-STK16 2–306) [nM]	IC50 [6] [nM]	number of early endosomes in AAK1-transfected cells [7]	early endosome formation in wild type cells (HeLa cells)
O=c1c2cccc3c([N+](=O)[O-])c(O)cc(c32)c2nc3ccccc3n12 [TIM-063, 2-hydroxy-3-nitro-7H-benzo[de]benzo[4,5]imidazo[2,1-a]isoquinolin-7-one]	~20	~80	8510	~ tenfold	strong interaction	weak binding	630	960										
Nc1ccc2c(c1)nc1c3cc(O)cc4cccc(c(=O)n21)c43 [TIM-098a, 11-amino-2-hydroxy-7H-benzo[de]benzo[4,5]imidazo[2,1-a]isoquinolin-7-one]			240						~ 35 fold	4–30 fold	without any significant inhibitory effects; also recorded: without any inhibitory activity	without any significant inhibitory effects; also recorded: without any inhibitory activity	5990	1040	7150	870	recovered to the level of untransfected wild type cells	not affected
